According to patent EP1009418B1, “ROBINIA PSEUDOACACIA LECTIN AND ITS USES” (priority 1997, dated 1999):

Columns and labels:
[1] = test system: small intestine, jejunum and ileum; experiment: Protection of rats from high-dose 5-FU by oral pre-dosing with RPA: gut wet weights and visual inspection; assay type: in vivo, Hooded Lister (Rowett Strain) rats
Description: (§1) Thirty five young male Hooded Lister (Rowett Strain) rats (19 days old weighing 30-40g) were housed individually in grid bottom cages. The animals were fed a high quality semi-synthetic diet containing 10% lactalbumin protein (Table 1).
(§2) Diet and water was freely available at all times except on day 19 when the amount of food offered was restricted to 10g/rat. At 19 days, rat weights were 100-104g.
Animals pre-dosed with RPA were given the equivalent of 25, 50 or 100 mg/kg body weight RPA (Table 2) in 0.9% saline by gavage. The animals were pre-dosed for three consecutive days prior to the 5-FU injection.
(§3) Animals not pre-dosed with RPA were administered with 1 ml 0.9% saline by gavage.
(§4) 300mg of 5-fluorouracil was stirred in 14ml of distilled water. 1M NaOH was added slowly until the 5-FU had dissolved. The solution was made up to a final volume of 20 ml. The final pH of the solution was 8.3. A dose of 150 mg/kg body weight was administered to the animal by intraperitoneal injection. Immediately after the injection, the rats were offered 15g of the control diet.
Five groups, each consisting of 5 rats were fed on the standard diet containing lactalbumin (Table 1). One group of rats were fed 8 g per day of standard diet for three days and then injected with 5-FU at 150 mg/kg body weight (Table 2).
The rats were pair fed for the first three days and then fed ab libitum post 5-FU injection.
Three groups of animals were gavaged daily with 25, 50 or 100 mg/kg/day body weight Robinia pseudoacacia lectin (RPA) for three days and then injected with 150 mg/kg 5-FU on the following day. The remaining group of animals were pre-dosed with 100 mg/kg body weight RPA and then returned to lactalbumin containing diet without injection of 5-FU. After injection with 5-FU, the animals were returned to lactalbumin containing diet ad lib. The animals were sacrificed 7 days after the start of the experiment, the carcass dissected and the small intestine, jejunum and ileum wet weights recorded.

[2] = test system: small intestine, jejunum and ileum; experiment: Protection of rats from high-dose 5-FU by oral pre-dosing with A4 or B4 homotetramer lectin: gut dry weights and visual inspection; assay type: in vivo, Hooded Lister (Rowett Strain) rats
Description: as §1, §2, §3, §4
Five groups, each consisting of 5 rats were fed on a standard diet containing lactalbumin (Table 1) and were fed on the following dietary regime (Table 4); Table 4.
One group of animals (Treatment 1) were fed standard diet throughout. The second group were gavaged daily with saline for three days and then injected with 5-FU at 150 mg/kg body weight (Treatment 2). The remaining two groups (Treatment 3 & 4) of animals were gavaged daily for three days with either A4 or B4 RPA homotetramer for three days and then injected with 150 mg/kg body weight 5-FU. After injection with 5-FU, Treatment groups 2-4 were returned to standard diet for four days ad lib. The animals were sacrificed 7 days after the start of the experiment, the carcass dissected and the small intestine, jejunum and ileum dry weights recorded.
Dry weights normalised to 100g dry body weight.

[3] = wet weight, lactalbumin diet 3d, 5-FU 150 mg/kg i.p., no RPA
[4] = dry weight normalised to 100g dry body weight, saline gavage 3d, 5-FU 150 mg/kg, no lectin

Compound: O=c1[nH]cc(F)c(=O)[nH]1 [5-FU, 5-fluorouracil]
- Visual inspection of the small intestine, jejunum and ileum ([1]; 5-FU alone (treatment 1)): no, or a very thin mucosal layer
- Ileum [1, 3]: 1.0 g
- Jejunum [1, 3]: 1.0 g
- Small intestine [1, 3]: 5.62 g
- tissue dry weight versus the untreated control ([2]; 5-FU 150 mg/kg (treatments 1 & 2)): significant reduction in tissue dry weight
- Visual inspection of the small intestine, jejunum and ileum ([2]; 5-FU alone): extensively damaged mucosal
- Ileum [2, 4]: 405 mg
- Jejunum [2, 4]: 336 mg
- Small intestine [2, 4]: 1789 mg
